Measurements published in article PMC3242598, “Phase I study of BIBF 1120 with docetaxel and prednisone in metastatic chemo-naive hormone-refractory prostate cancer patients” (British Journal of Cancer, 2011).
Entries after “also recorded” stand apart in the source; their conditions may differ. Read-outs that look alike come from different tables or passages of the source.

How the values were obtained:
[1] = parameters: method as in Mross et al, 2010; conditions: monotherapy phase I; ref Mross et al, 2010; cited from earlier work
[2] = Plasma pharmacokinetics of BIBF 1120 (HPLC-MS/MS); assay type: in vivo, human; conditions: for Cmax / AUC(0-t) / half-life / Tmax: human, plasma, po, 250 mg; for Cmax: read-out: Cmax, gMean (gCV%); for AUC(0-t): read-out: AUC0−24, gMean (gCV%); for half-life: read-out: t1/2, gMean (gCV%) (converted); for Tmax: read-out: tmax, median and range
Protocol: Plasma concentrations of BIBF 1120 and docetaxel were analysed by a validated method using high-performance liquid chromatography coupled with tandem mass spectrometry (HPLC-MS/MS) in the Department of Drug Metabolism and Pharmacokinetics (Boehringer Ingelheim Pharma GmbH & Co KG, Biberach, Germany). The assay comprises sample clean-up by automated solid-phase extraction in a 96-well plate format. Chromatography was achieved on an analytical C18 reversed phase HPLC column with gradient elution. The substance was detected and quantified by HPLC-MS/MS using electrospray ionisation in the positive ion mode. Docetaxel was analysed by HPLC-MS/MS using paclitaxel as an internal standard. The assay comprises sample clean-up by liquid–liquid extraction and chromatography on an analytical C18 reversed phase HPLC column with isocratic elution. […] For docetaxel, the lower limit was 2.5 ng ml^−1 plasma, using a plasma volume of 100 μl. The calculated parameters were plasmatic peak concentrations following the first dose (Cmax), half-life time (t1/2), area under the plasma concentration–time curve (AUCt), apparent clearance after oral administration, and apparent volume of distribution during the terminal phase.

[3] = oral 250 mg BID, day 2 of treatment cycle 2, with docetaxel
[4] = male, oral 250 mg BID, day 2 of treatment cycle 1
[5] = male, oral 250 mg BID, treatment cycle 2

COC(=O)c1ccc2c(c1)NC(=O)/C2=C(\Nc1ccc(N(C)C(=O)CN2CCN(C)CC2)cc1)c1ccccc1 [BIBF 1120]
t1/2 [1]: ~15 h
Exposure with increasing doses ([2]; 100–250 mg BID): dose-dependent increase in exposure
Time to reach steady state ([2]; BIBF 1120 BID dosing): 7 days
PK interaction between BIBF 1120 and docetaxel/prednisone ([2]; combination therapy): no interactions; also recorded: no hint for PK interaction; also recorded: no indication of PK interaction
Cmax [2, 3]: 45.9 ng/mL
AUC(0-t) [2, 4]: 454 ng·h/mL
half-life [2, 4]: 7.03 h
Cmax ([2]; male, oral 250 mg BID, day 2 of treatment cycle 1, with docetaxel): 65 ng/mL
half-life ([2]; male, oral 250 mg BID, day 2 of treatment cycle 2): 15.4 h
Tmax ([2]; male, oral 250 mg BID, treatment cycle 1): 3 h
AUC(0-t) [2, 5]: 410 ng·h/mL
Tmax [2, 5]: 2.08 h
Cmax, gMean (gCV%) [2, 3]: 45.8 (98.5) ng ml^−1
